A short description of the data set: gradient 5% acetonitrile 3 min, to 50% in 2 min, to 85% in 15 min, held 3 min, 100 µL/min. Particulars: column: Zorbax Extend-C18 2.1 x 50 mm; eluents: water / acetonitrile, 0.1% formic acid. The gist of the method: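 Standards, all pure, were combined into mixtures of ~100 molecules and run at 100 μL/min on a Zorbax Extend-C18 column (2.1 × 50 mm, 1.8 μm) with water and acetonitrile, each containing 0.1% formic acid. A coupled quadrupole time-of-flight mass spectrometer operated in positive and negative ionization mode. Retention time values come from computationally picked adduct peaks, each inspected manually.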
`O=C(NCCc1cnc[nH]1)c1nc(Nc2ccc(F)cc2)c2ccccc2n1`: the RP-LC retention time came to 589 s. Compound `CCc1nnc(-c2cn(CC(=O)NCCCc3ccccc3)c3ccccc23)o1` yielded an RP-LC retention time of 877 s. With `CCOc1ccc(NC(=O)c2oc3ccc(C)cc3c2C)c2cccnc12`, the RP-LC retention time turned out to be 766 s. The compound `COc1ccc(Cl)cc1NC(=O)C(=O)c1cccn1C` registered an RP-LC retention time of 1140 s. `CS(=O)(=O)N1CCC(C(=O)Nc2cccc(C(F)(F)F)c2)Oc2ccc(Cl)cc21` (centres undefined) had an RP-LC retention time of 1060 s. In turn, `CC(C)n1cc(S(=O)(=O)N2CCN(c3cccc(Cl)c3)CC2)c2cccnc21` returned an RP-LC retention time of 761 s. As to `CCc1ccc(NC(=O)C2(C)Oc3cccnc3N(C(C)C)C2=O)cc1` (centres undefined), the RP-LC retention time turned out to be 1120 s. With `O=C(CC1CCCN(c2cn[nH]c(=O)c2)C1)N1CCC2(CC1)OCCO2` (centres undefined) the figure was 604 s.

In the case of `Cc1sc2ccn(CC(C)C)c(=O)c2c1C(=O)N1CCN(c2ccccn2)CC1`, the RP-LC retention time is 618 s. For `O=C1/C(=C/c2cccnc2)Oc2cc(OCc3ccc([N+](=O)[O-])cc3)ccc21`, the RP-LC retention time was determined as 838 s. Turning to `NC(=O)C1CCN(C(=O)c2nnn(-c3ccccc3Cl)c2-c2ccncc2)CC1`, the RP-LC retention time was determined as 603 s.

For the compound `COc1ccc(OCC(=O)N2CCCC2c2nc(-c3ccccc3)no2)cc1` (centres undefined), the RP-LC retention time came to 930 s.

`COc1cc2c(cc1OC)C(C(=O)Nc1ccc(F)cc1F)C(c1cccs1)N(C)C2=O` (centres undefined): the RP-LC retention time came out at 827 s.

Regarding `O=C1N(c2cccc(F)c2)C(c2ccccc2)C12CCN(Cc1cccc(F)c1O)CC2` (centres undefined), the RP-LC retention time amounted to 774 s.

For the compound `Cc1cc2nn(CC(=O)Nc3cccc(C)c3C)c(=O)n2c(-c2ccc(F)cc2)n1`, the RP-LC retention time worked out at 849 s. With `COc1ccc(-c2noc(C3CC(=O)N(c4ccc(C)c(Cl)c4)C3)n2)cc1OC` (centres undefined) the figure was 1020 s. `COc1ccc(-c2csc(Cc3nc(-c4ccc(Cl)cc4)no3)n2)cc1` displayed an RP-LC retention time of 1290 s. The compound `CC(=O)N1CCc2cc(N3CC(C(=O)Nc4cccc(F)c4)CC3=O)ccc21` (centres undefined) showed an RP-LC retention time of 710 s.

Consider `O=C(Cc1cccc(C(F)(F)F)c1)Nc1cnn(-c2ncc(N3CCCC3)cn2)c1`, for which the RP-LC retention time was 907 s.

The compound `COC(=O)C(C)NC(=O)N1CCN(c2nc3ccccc3n2Cc2ccccc2)CC1` (centres undefined) showed an RP-LC retention time of 659 s. As to `CNC(=O)N1CCC(N2C(=O)C3(CCCCC3)C2c2ccccc2)CC1` (centres undefined), the RP-LC retention time came to 783 s.

Compound `Cc1ccc(CNC(=O)Cn2ncc3c(c2=O)N(CC2CC2)C(=O)CS3)cc1` displayed an RP-LC retention time of 784 s. `Cn1c(=O)c(-c2ccc(C(=O)N3CCOCC3)cc2)nc2ccccc21` had an RP-LC retention time of 698 s. Compound `O=C(Cc1nc(-c2ccccn2)n[nH]1)Nc1ccccc1` returned an RP-LC retention time of 596 s. The compound `Cc1ccc2nc(-c3ccc(N4CCOCC4)cc3)c(Nc3ccccc3C)n2c1` had an RP-LC retention time of 755 s. For `O=C(NC1CCCCC1)C1c2cccn2CC(=O)N1Cc1ccc(F)cc1` (centres undefined), the RP-LC retention time came out at 918 s.

Compound `CCCCCNC(=O)C1CCN(c2cc(Sc3cc(C)ccc3C)ncn2)CC1` came in with an RP-LC retention time of 951 s. `O=C1NCCCn2cc(S(=O)(=O)Nc3ccc(F)cc3F)cc21`: the RP-LC retention time was 641 s. In turn, `O=C(NC1CCCN(c2cc(-c3ccc(Cl)cc3)[nH]n2)C1)c1ccc2[nH]ccc2c1` (centres undefined) registered an RP-LC retention time of 825 s. With `Cc1ccc(S(=O)(=O)N2CCC(c3nc(-c4cccc(-c5ccn[nH]5)c4)no3)CC2)cc1`, the RP-LC retention time is 971 s.

`CCN(CC)CCNC(=O)c1ccc2c(c1)N(S(C)(=O)=O)CC2` had an RP-LC retention time of 554 s.

For the compound `Cn1c(CCN2C(=O)C3(CCOCC3)CC2c2nnnn2C(C)(C)C)nc2ccccc21` (centres undefined), the RP-LC retention time stood at 578 s.

Regarding `CC1CCN(CCNc2ccc(-c3nc(-c4ccc(F)cc4)no3)cn2)CC1`, the RP-LC retention time came out at 777 s.

With `COc1ccc(NC(=O)c2nnc(COCC(=O)NCCc3c[nH]c4ccc(C)cc34)s2)cc1`, the RP-LC retention time came to 892 s. In turn, `Cc1ccc(Cn2c(N3CCCC(C(=O)NCC4CC4)C3)nc3ccsc3c2=O)cc1` (centres undefined) gave an RP-LC retention time of 894 s.

Take `Cc1ccc(-c2noc(Cc3nnc(-c4cccc(Cl)c4)o3)n2)cc1C`: the RP-LC retention time came to 1210 s. The compound `CNC(=O)N1CCCC(c2nc(CCOCC3CCCC3)no2)C1` (centres undefined) came in with an RP-LC retention time of 759 s.

Regarding `CCN1CCN(CCCNC(=O)C2=Cc3cc(OC)ccc3OC2)CC1`, the RP-LC retention time was found to be 578 s.

On to `CCS(=O)(=O)N1CCCc2cc(C(=O)NCC(C)C)ccc21`, for which the RP-LC retention time turned out to be 808 s. As to `CCc1nc2cc(-c3noc(-c4ccc5c(c4)OCO5)n3)ccc2o1`, the RP-LC retention time came to 1150 s. Compound `Cc1ccc(NC(=O)CN2CCC(c3nc(-c4cccs4)no3)CC2)c(C)c1` registered an RP-LC retention time of 718 s. `CCn1cc(C2=CCN(C(=O)Nc3ccc(SC)cc3)CC2)c2cccnc21`: the RP-LC retention time was found to be 910 s. On to `COc1ccc(Cc2nc(-c3ccc4nnc(C)n4c3)no2)cc1OC`, for which the RP-LC retention time turned out to be 724 s.

In the case of `NC(=O)C1CCN(C(=O)Cn2c(-c3cccs3)cc3ccccc32)CC1`, the RP-LC retention time was found to be 744 s. Take `O=C(NCc1ccco1)C1CC(=O)N(c2ccc3c(c2)CCN3C(=O)C2CC2)C1` (centres undefined): the RP-LC retention time worked out at 687 s. In turn, `Cc1noc(-c2nc(Cc3ccc(F)cc3)no2)n1` gave an RP-LC retention time of 953 s. `Cc1nc(CSc2cc(C)c3ccccc3n2)cs1` displayed an RP-LC retention time of 969 s. In the case of `Cc1ccc(NC(=O)CSc2ccc(N3CCCC(C(=O)NC4CC4)C3)nn2)cc1` (centres undefined), the RP-LC retention time was 659 s. `CCc1nc2cc(-c3noc(-c4ccc5cc[nH]c5c4)n3)ccc2o1` showed an RP-LC retention time of 1110 s. As to `Cc1cc2c(cc1CNC(=O)Cn1c(C(F)(F)F)nc3ccccc31)OCCCO2`, the RP-LC retention time turned out to be 849 s.

`Cc1ccc(S(=O)(=O)N2CCC(C(=O)N3CCCC3c3nc(-c4ccccc4C)no3)CC2)cc1` (centres undefined): the RP-LC retention time was found to be 1090 s. `CCc1noc(NC(C)=O)c1-c1ccc(C)c(S(=O)(=O)NC2CCCC2)c1` registered an RP-LC retention time of 808 s. `CC(C)C1c2nccn2CCCN1C(=O)Cn1c(=O)oc2ccccc21` (centres undefined) displayed an RP-LC retention time of 603 s. Regarding `CC(C)(C)CNC(=O)c1cc(=O)[nH]c2ccccc12`, the RP-LC retention time came to 869 s. With `CC(C)c1ccc(-c2nc3ccccc3s2)cc1`, the RP-LC retention time turned out to be 958 s. In turn, `O=S(=O)(c1ccc(-c2noc(-c3ccccc3Br)n2)cc1)N1CCOCC1` displayed an RP-LC retention time of 1110 s. The compound `COC(=O)c1ccccc1NC(=O)N1CCN(Cc2nc(-c3cccc(Cl)c3)oc2C)CC1` showed an RP-LC retention time of 809 s. On to `Cn1c(N2CCN(C(=O)Cc3ccc(F)cc3)CC2)cc(=O)n(C)c1=O`, for which the RP-LC retention time came out at 680 s. Turning to `O=C(Cc1ccccc1)NC1CCN(c2cc(-c3ccc(Cl)cc3)[nH]n2)C1` (centres undefined), the RP-LC retention time turned out to be 764 s.

For the origin of these results see the METLIN SMRT retention time set (Domingo-Almenara et al. 2019).
